In patent US20160109430A1, “METHODS FOR DRUG DISCOVERY” (Memorial Sloan-Kettering Cancer Center, priority 2014, published 2016):

Key:
Format in all cases: cell-based
LS8817 cells [1] = experiment: ATRX foci per cell by immunofluorescence in LS8817 cells
Description: (§1) Cells were washed twice with PBS and fixed with 4% paraformaldehyde at room temperature for 20 minutes. Cells were again washed twice with PBS and treated with 0.5% triton X-100 in PBS. Cells were again washed twice with PBS and blocked in 5% BSA in PBS for 30 minutes at room temperature. Cells were incubated with anti-ATRX antibody, obtained from Bethyl, Cat No. A301-045A, diluted at 1:2000 in PBS (stock is provided at 1 mg/ml) overnight at 4 degrees Celsius. The following day, cells were washed twice with PBS and incubated with Alexa Fluor-488 anti-rabbit secondary diluted at 1:500 in PBS (stock was provided at 2 mg/ml) for one hour at room temperature. Cells were washed twice with PBS and incubated with 0.1 μg/ml DAPI for 5 minutes at room temperature. Cells were washed three times with PBS and slides were mounted in Vectashield fluorescence mounting media. Slides were imaged using a Zeiss Axioplan 2 Upright Microscope.

LS8817 cells [2] = experiment: Senescence-associated β-galactosidase / senescence analysis in LS8817 cells; conditions: for accumulation of SA-β-gal staining: 100 μM doxorubicin for five days
U2OS cells = experiment: Senescence analysis (SA-β-gal) in U2OS cells
Description: (§2) Cells were plated at a concentration of 25,000 per well in a 4-well chamber slides (Lab-Tek) and treated for seven days with drug and stained for senescence-associated β-galactosidase (Cell Signaling kit #9860). Cell number was quantitated by DAPI staining and β-galactosidase staining quantitated as a proportion of total cells.

LS8107 cells [3] = experiment: ATRX foci per cell by immunofluorescence in LS8107 cells; conditions: PD0332991 followed by shMDM2, compared to untreated or PD0332991 alone
Description: as §1

LS8107 cells [4] = experiment: Senescence analysis (SA-β-gal) in LS8107 cells
Description: as §2

Structure (SMILES)	ATRX foci in cells expressing shATRX (LS8817 cells [1]; LS8817 cells expressing shATRX, 100 μM doxorubicin for five days)	average number of ATRX foci per cell (LS8817 cells [1]; LS8817 cells, 100 μM doxorubicin for five days, control cells about 8)	accumulation of SA-β-gal staining (LS8817 cells [2]; LS8817 cells expressing shATRX)	accumulation of SA-β-gal staining (LS8817 cells [2]; LS8817 cells expressing shSCR)	cell state (quiescent or senescent) on CDK4 inhibition, by SA-β-gal (U2OS cells; U2OS cells expressing exogenous ATRX)	cell state (quiescent or senescent) on CDK4 inhibition (U2OS cells; U2OS cells that do not express endogenous ATRX)	average number of ATRX foci per cell (LS8817 cells [1]; LS8817 cells, PD0332991 1 μM or 0.1 μM)	number of ATRX foci per cell (LS8817 cells [1]; LS8817 cells, PD0332991 in the presence of exogenous MDM2 (tet-on-MDM2-Flag, doxycycline), compared to PD0332991 alone)	cell state (quiescent or senescent) (LS8817 cells [2]; LS8817 cells, 1 μM or 0.1 μM)	number of ATRX foci per cell (LS8107 cells [3])	cell state (quiescent or senescent) (LS8107 cells [4]; CDK4 inhibitor alone)	accumulation of SA-β-gal (LS8107 cells [4]; PD0332991 followed by shMDM2)
COc1cccc2c1C(=O)c1c(O)c3c(c(O)c1C2=O)C[C@@](O)(C(=O)CO)C[C@@H]3O[C@H]1C[C@H](N)[C@H](O)[C@H](C)O1 [doxorubicin]	not observed	about 35	did not significantly accumulate	significantly accumulated	–	–	–	–	–	–	–	–
CC(=O)c1c(C)c2cnc(Nc3ccc(N4CCNCC4)cn3)nc2n(C2CCCC2)c1=O [PD0332991]	–	–	–	–	entering a senescent state	entering a quiescent state versus a senescent state	significant increase	prevented an increase	enter a senescent state	significant increase	entered a quiescent state	accumulation of SA-β-gal
